This assay concerns the target T1, Pseudomonas fluorescens agglutinin (PFA) (Pseudomonas fluorescens, UniProt Q3KJ04).
T1 construct: gene Pfl01_0508; 14 kDa
T1 sequence (Q3KJ04 1-133): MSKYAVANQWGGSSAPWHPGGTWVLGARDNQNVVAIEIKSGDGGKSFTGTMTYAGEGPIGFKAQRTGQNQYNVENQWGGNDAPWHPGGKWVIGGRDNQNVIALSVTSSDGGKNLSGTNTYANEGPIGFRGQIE
Nature of the assay: competitive ELISA on immobilized gp120. The note with it: inhibition of PFA binding to immobilized gp120, 400 nM PFA, 0-2000 mM mannose, room temperature not stated for this step. (In general: ELISA stands for enzyme-linked immunosorbent assay.)

Each structure is given as a SMILES string.

On to `OC[C@H]1OC(O)[C@@H](O)[C@@H](O)[C@@H]1O` (stereo partly shown) [mannose], for which the onset of inhibition is recorded as ~ 200 mM.
